Consider five molecules from ChEMBL document CHEMBL1154671, “Isoquinoline-based analogs of the cancer drug clinical candidate tipifarnib as anti-Trypanosoma cruzi agents” (Bioorg Med Chem Lett, 2009).

As usually defined, the EC50 is the concentration needed to bring the measured effect to its halfway point. A higher EC50 goes with a less potent agent.

This test relates to Trypanosoma cruzi. In words: Antitrypanosomal activity against Trypanosoma cruzi Tulahuen infected in mouse 3T3 cells. The format is functional, organism-based. Particulars: NIH3T3.
`COC(c1ccc(Cl)cc1)(c1ccc2cnccc2c1)c1cncn1C` (stereo not given) had a concentration giving a half-maximal response (EC50) of 120 nM.
Turning to `COC(c1ccc(Cl)cc1)(c1ccc2cncc(-c3c(F)cccc3F)c2c1)c1cncn1C` (stereo not given), the EC50 was determined as 0.9 nM.
The result for `COC(c1ccc(Cl)cc1)(c1ccc2cncc(-c3cccc(Cl)c3)c2c1)c1cncn1C` (stereo not given) reads 0.5 nM; that for `CC[C@@H]([C@H](C)O)n1ncn(-c2ccc(N3CCN(c4ccc(OC[C@@H]5CO[C@@](Cn6cncn6)(c6ccc(F)cc6F)C5)cc4)CC3)cc2)c1=O` [POSACONAZOLE], 0.3 nM.
Next, `Cn1cncc1[C@@](N)(c1ccc(Cl)cc1)c1ccc2c(c1)c(-c1cccc(Cl)c1)cc(=O)n2C` [TIPIFARNIB]: 4 nM.
